How the values were obtained:
[1] = Liver Microsome Stability Assay (mouse); conditions: mouse liver microsomes, with NADPH, 1.0 uM compound
Description: (§1) Stability of a compound was assessed in the presence of liver microsomes from various sources—mouse, rat, monkey and human liver microsomes. 1.0 uM compound, 0.4% DMSO in 0.1 M Potassium Phosphate with 1.0 mg/mL liver microsomes, were incubated at 37° C. with or without 1 mM NADPH. The samples were quenched at 0, and 30 minutes.

[2] = Liver Microsome Stability Assay (monkey); conditions: monkey liver microsomes, with NADPH, 1.0 uM compound
Description: as §1

[3] = system: TNFα-FL/Gaussia Luciferase; experiment: Dox Induced TNFα-FL-Gluc Assay; format: cell-based; conditions: for IC50: 24 hr Dox induction, 293FRT/TO cells, read-out: 24 hr Dox Inducible TNFaFLGluc 293FRT/TO: Mean IC50; for 24 hr Dox Inducible TNFaFLGluc 293FRT/TO: TNF/PD1: ratio of TNFaFLGluc IC50 to PD1ssGluc IC50
Summary of the method: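 Hygromycin/blasticidin-selected Flp-In 293 T-REx cells, TNFα-FL/Gaussia luciferase fusion under T-REx control; overnight plating, then compound in DMSO/media with doxycycline at 37 °C, 5% CO2; stereo-undefined structures tested as mixtures.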

[4] = Liver Microsome Stability Assay (rat); conditions: rat liver microsomes, with NADPH, 1.0 uM compound
Description: as §1

[5] = system: multiple myeloma cell line U266B1; experiment: U266 Cell Viability Assay; format: cell-based, human; conditions: Homo sapiens, U-266, 48 h, U266B1 cells, Celltiter-Glo
Summary of the method: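 After growth in serum-supplemented RPMI 1640, cells received serially diluted compound in DMSO/media and were kept 48 hours before a CellTiter-Glo luminescence readout.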

[6] = system: PD1-ss+10aa/Gaussia Luciferase; experiment: Dox-Induced PD1-ss-Gluc Assay; format: cell-based; conditions: 24 hr Dox induction; 293FRT/TO cells; read-out: 24 hr Dox Inducible PD1ssGluc 293FRT/TO: Mean IC50
Summary of the method: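 Flp-In 293 T-REx cells stably carrying a doxycycline-inducible Gaussia luciferase fused to the PD1 signal sequence plus 10 aa were plated the day before. Compound dilutions in DMSO/media containing doxycycline were then added and incubated at 37 °C, 5% CO2. Data for undefined stereochemistry refer to stereoisomer mixtures.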

[7] = system: HER3-ss+4aa/Gaussia Luciferase; experiment: Dox-Induced Her3-ss-Gluc Assay; format: cell-based; conditions: 24 hr Dox induction; 293FRT/TO cells; read-out: 24 hr Dox Inducible Her3(ss + 4)Gluc 293FRT/TO: Mean IC50
Summary of the method: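 Doxycycline-inducible HER3 signal sequence+4aa/Gaussia luciferase construct, stably integrated in Flp-In 293 T-REx cells; compound dilutions applied with doxycycline at 37° C., 5% CO2.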

[8] = system: IL-2-FL/Gaussia Luciferase; experiment: Dox Induced IL2-FL-Gluc Assay; format: cell-based; conditions: for IC50: 24 hr Dox induction, 293FRT/TO cells, read-out: 24 hr Dox Inducible IL2FLGluc 293FRT/TO: Mean IC50; for 24 hr Dox Inducible IL2FLGluc 293FRT/TO: IL2/PD1: ratio of IL2FLGluc IC50 to PD1ssGluc IC50
Summary of the method: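 A hygromycin- and blasticidin-resistant 293 T-REx clone carrying inducible IL-2–Gaussia luciferase (full-length IL-2, residues 1-153) serves as the cell system. After overnight plating, the cells get test compounds together with doxycycline in DMSO/media and are incubated at 37° C, 5% CO2.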

[9] = Liver Microsome Stability Assay (human); conditions: human liver microsomes, with NADPH, 1.0 uM compound
Description: as §1

[10] = system: multiple myeloma cell line NCI-H929; experiment: H929 Cell Viability Assay; format: cell-based, human; conditions: Homo sapiens, NCI-H929, 48 h, NCI-H929 cells, Celltiter-Glo
Summary of the method: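 A 48-hour compound treatment of cells in 10% FBS RPMI medium was followed by luciferase-based viability quantification.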

Row | Liver Microsome Stability (Multiple Species): Mouse - % Remaining after 30 min w/NADPH [1] [%] | Liver Microsome Stability (Multiple Species): Monkey - % Remaining after 30 min w/NADPH [2] [%] | IC50 [3] [nM] | Liver Microsome Stability (Multiple Species): Rat - % Remaining after 30 min w/NADPH [4] [%] | EC50 [5] [nM] | IC50 [6] [nM] | IC50 [7] [nM] | IC50 [8] [nM] | Liver Microsome Stability (Multiple Species): Human - % Remaining after 30 min w/NADPH [9] [%] | EC50 [10] [nM] | SMILES | 24 hr Dox Inducible TNFaFLGluc 293FRT/TO: TNF/PD1 [3] | 24 hr Dox Inducible IL2FLGluc 293FRT/TO: IL2/PD1 [8]
1 | 4.96 | 0.6 | > 25000 | 6.37 | > 25000 | > 25000 | > 25000 | > 25000 | 0.48 | > 25000 | O=C1CCCC(/C=C/c2csc(NC(=O)c3cccn3Cc3ccncc3)n2)N1 (stereo not drawn) [Compound B13, (E)-N-(4-(2-(6-oxopiperidin-2-yl)vinyl)thiazol-2-yl)-1-(pyridin-4-ylmethyl)-1H-pyrrole-2-carboxamide] | <=>1.00 | 1
2 | 0.14 | 0.08 | 350 | 15 | > 25000 | 26.6 | 23.6 | 88.5 | 0.1 | 3750 | CC(=O)N[C@@H](C)c1ccc(N2CCC[C@@H]2c2csc(NC(=O)c3cccn3Cc3ccncc3)n2)cc1 [Compound A73, N-(4-((R)-1-(4-((S)-1-acetamidoethyl)phenyl)pyrrolidin-2-yl)thiazol-2-yl)-1-(pyridin-4-ylmethyl)-1H-pyrrole-2-carboxamide] | 13.2 | 3.3
3 | 26 | 10.7 | 460 | 41.9 | > 25000 | 20.3 | 37.1 | 58.3 | 30.1 | 687 | O=C(Nc1nc([C@H]2CCCN2c2ccc(OC3CCN(C(=O)CO)CC3)cc2)cs1)c1cccn1Cc1ccnc(F)c1 [Compound A139, (R)-1-((2-fluoropyridin-4-yl)methyl)-N-(4-(1-(4-((1-(2-hydroxyacetyl)piperidin-4-yl)oxy)phenyl)pyrrolidin-2-yl)thiazol-2-yl)-1H-pyrrole-2-carboxamide] | 22.6 | 2.9
4 | 0.16 | 0.03 | > 25000 | 0.1 | > 25000 | 298 | > 25000 | > 25000 | 0.03 | > 25000 | O=C(Nc1nc(/C=C/c2cn3c(n2)CCC3)cs1)c1cccn1Cc1ccncc1 [Compound B71, (E)-N-(4-(2-(6,7-dihydro-5H-pyrrolo[1,2-a]imidazol-2-yl)vinyl)thiazol-2-yl)-1-(pyridin-4-ylmethyl)-1H-pyrrole-2-carboxamide] | >83.9 | >84

Source: patent US20230286973A1, “PROTEIN SECRETION INHIBITORS” (KEZAR LIFE SCIENCES, priority 2020, published 2023)
